Test results: US4897379A, “N-[N^α -(1(S)-carboxy-3-cyclohexylpropyl)-L-lysyl]-N-cyclopentylglycine as antihypertensives” (Asahi Breweries Ltd., priority 1987, dated 1990)

Experiments:
[1] = tested on: angiotensin converting enzyme; settings: Nature 288, 280 (1980); Chem. Pharm. Bull. 34, 1128 (1986); cited from earlier work
rabbit lung ACE = target: T1, rabbit lung ACE (Oryctolagus cuniculus, UniProt P12822); assay: Inhibition of rabbit lung ACE by the method of Friedland and Silverstein; type: biochemical; settings: for IC50: rabbit lung ACE, method of Friedland and Silverstein, read-out: IC50 (M) = Concentration inhibiting 50% of the activity of rabbit lung ACE
T1 construct: from tissue; host or cells: rabbit lung
T1 sequence (P12822 34-1310): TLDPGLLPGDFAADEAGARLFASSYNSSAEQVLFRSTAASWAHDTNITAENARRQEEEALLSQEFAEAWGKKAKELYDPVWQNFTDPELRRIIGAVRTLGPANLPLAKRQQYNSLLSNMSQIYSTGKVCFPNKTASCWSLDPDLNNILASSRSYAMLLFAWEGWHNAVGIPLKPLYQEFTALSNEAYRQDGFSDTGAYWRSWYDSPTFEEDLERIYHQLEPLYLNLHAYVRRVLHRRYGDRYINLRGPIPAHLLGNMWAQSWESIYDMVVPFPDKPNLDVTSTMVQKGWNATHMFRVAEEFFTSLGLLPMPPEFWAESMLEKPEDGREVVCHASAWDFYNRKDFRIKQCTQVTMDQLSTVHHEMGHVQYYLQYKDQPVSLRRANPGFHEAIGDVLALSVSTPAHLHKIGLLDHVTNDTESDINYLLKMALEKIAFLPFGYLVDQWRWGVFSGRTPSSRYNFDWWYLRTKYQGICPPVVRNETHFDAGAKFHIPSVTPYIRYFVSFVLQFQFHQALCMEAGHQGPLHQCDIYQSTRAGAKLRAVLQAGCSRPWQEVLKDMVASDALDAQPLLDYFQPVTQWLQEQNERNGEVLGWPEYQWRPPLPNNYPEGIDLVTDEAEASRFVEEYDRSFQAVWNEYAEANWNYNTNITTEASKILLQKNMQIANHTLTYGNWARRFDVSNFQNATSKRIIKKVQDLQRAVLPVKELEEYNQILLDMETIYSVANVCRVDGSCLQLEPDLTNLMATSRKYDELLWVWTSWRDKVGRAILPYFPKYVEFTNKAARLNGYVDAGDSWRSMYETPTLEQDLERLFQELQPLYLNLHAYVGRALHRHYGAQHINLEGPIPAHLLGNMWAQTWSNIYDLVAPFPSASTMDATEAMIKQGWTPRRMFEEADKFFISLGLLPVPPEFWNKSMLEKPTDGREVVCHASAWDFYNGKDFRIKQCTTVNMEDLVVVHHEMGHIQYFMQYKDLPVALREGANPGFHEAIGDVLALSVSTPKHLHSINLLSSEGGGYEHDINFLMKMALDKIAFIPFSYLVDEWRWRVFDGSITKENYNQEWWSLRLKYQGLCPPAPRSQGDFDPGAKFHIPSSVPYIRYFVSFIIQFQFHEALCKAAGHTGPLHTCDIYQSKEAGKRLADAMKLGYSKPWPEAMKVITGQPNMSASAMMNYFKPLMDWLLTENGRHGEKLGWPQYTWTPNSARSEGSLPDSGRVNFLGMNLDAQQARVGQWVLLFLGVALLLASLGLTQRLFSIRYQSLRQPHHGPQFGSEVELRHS
Description: IC50 (M) = Concentration inhibiting 50% of the activity of rabbit
lung ACE was determined by the method of Friedland and Silverstein.

Row | Compound | order of strength of activity [1] | IC50 (rabbit lung ACE) [M] | strength of activity relative to Lisinopril (rabbit lung ACE; ACE inhibition, compared with Lisinopril)
1 | CCOC(=O)[C@H](CCc1ccccc1)N[C@@H](C)C(=O)N1CCC[C@H]1C(=O)O [Enalapril] | Lisinopril>Enalapril>CV-3317 |  | 
2 | CCOC(=O)[C@H](CCc1ccccc1)N[C@@H](C)C(=O)N(CC(=O)O)C1Cc2ccccc2C1 [CV-3317] | Lisinopril>Enalapril>CV-3317 |  | 
3 | NCCCC[C@H](N[C@@H](CCc1ccccc1)C(=O)O)C(=O)N1CCC[C@H]1C(=O)O [Lisinopril] | Lisinopril>Enalapril>CV-3317 | 1.1e-09 | 
4 | NCCCC[C@H](N[C@@H](CCC1CCCCC1)C(=O)O)C(=O)N(CC(=O)O)C1CCCC1 [N-[N^α -(1(S)-carboxy-3-cyclohexylpropyl)-L-lysyl]-N-cyclopentylglycine] |  | 1e-10 | more than 10 times
